These are literature values, as cited in EP4223883A1, “PROCESS FOR PRODUCING TRYPTAMINES” (Infinit Biosystems, priority 2022, dated 2023).

Data set [1] concerns the target T1, PSI K, 4-hydroxytryptamine kinase, Psilocybe cubensis, Uniprot: P0DPA8 (Psilocybe cubensis, UniProt P0DPA8).
T1 sequence (P0DPA8 1-362): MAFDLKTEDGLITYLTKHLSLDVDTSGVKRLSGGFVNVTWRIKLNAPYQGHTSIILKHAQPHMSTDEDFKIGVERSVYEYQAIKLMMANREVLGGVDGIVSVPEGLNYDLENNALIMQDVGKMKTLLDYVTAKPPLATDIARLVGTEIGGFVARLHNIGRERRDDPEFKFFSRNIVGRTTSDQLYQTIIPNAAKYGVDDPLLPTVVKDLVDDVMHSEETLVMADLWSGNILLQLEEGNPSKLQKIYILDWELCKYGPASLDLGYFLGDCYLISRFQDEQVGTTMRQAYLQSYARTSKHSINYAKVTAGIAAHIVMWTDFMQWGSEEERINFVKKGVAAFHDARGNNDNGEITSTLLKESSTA
To be noted: substrate taken from the text, not given; Km of the cofactor (ATP) considered equal.

The test system of data set [2] is PSI M, N-methyltransferase, Psilocybe cubensis, Uniprot: P0DPA9.
For data set [3], the system named is T2, PSI H, Tryptamine 4-monooxygenase, Psilocybe cubensis, Uniprot: A0A286LF02.
T2 sequence (A0A286LF02 20-507): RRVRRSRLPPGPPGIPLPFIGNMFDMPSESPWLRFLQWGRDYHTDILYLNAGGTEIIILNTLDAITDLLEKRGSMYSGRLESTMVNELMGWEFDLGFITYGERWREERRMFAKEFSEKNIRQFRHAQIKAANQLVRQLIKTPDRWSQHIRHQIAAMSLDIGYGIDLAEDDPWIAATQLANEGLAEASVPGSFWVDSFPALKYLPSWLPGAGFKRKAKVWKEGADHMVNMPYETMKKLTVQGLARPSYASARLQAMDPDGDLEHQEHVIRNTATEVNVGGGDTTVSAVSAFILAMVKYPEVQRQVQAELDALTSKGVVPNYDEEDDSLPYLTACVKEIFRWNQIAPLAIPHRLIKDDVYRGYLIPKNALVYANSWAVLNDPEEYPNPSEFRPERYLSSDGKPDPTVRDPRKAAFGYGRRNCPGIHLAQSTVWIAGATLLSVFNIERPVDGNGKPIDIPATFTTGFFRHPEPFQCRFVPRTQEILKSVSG
To be noted: substrate taken from the text, not given; Km of the cofactor (NADPH) considered equal.

Turning to `NCCc1c[nH]c2cccc(O)c12` [4-hydroxytryptamine], in data set [1], the Michaelis-Menten constant (Km) was 80 µM.
Turning to `NCCc1c[nH]c2cccc(OP(=O)(O)O)c12` [norbaeocystin], the Km in data set [2] is 165 µM.
On to `NCCc1c[nH]c2ccccc12` [tryptamine, Tryptamine], for which the Km in data set [3] was 220 µM.
